pIC50: −log10 of the molar value.

The experiment addresses T1, Human thrombin (Homo sapiens, UniProt P00734).
T1 construct: purchased Centraal Laboratorium voor Bloedtransfusie, Amsterdam, The Netherlands
Nature of the experiment: Anti-thrombin assay (hydrolysis of chromogenic substrate S-2238 by thrombin). The class given is biochemical. To be noted: final concentration causing 50% inhibition of the maximum absorbance of the blank; S-2238 substrate, TNP buffer pH 7.4, 37° C., absorbance at 405 nm. As for the experimental part:
Thrombin (Factor IIa) is a factor in the coagulation cascade.
At room temperature 0.075 ml and 0.025 ml test compound or reference compound solutions or vehicle are alternately pipetted into the wells of a microtiter plate and these solutions are diluted with 0.115 ml and 0.0165 ml TNP buffer, respectively. […] The plate is incubated (with shaking for 30 s) at 37° C.
All data are collected in an IBM personal computer using LOTUS-MEASURE.
As to `N=C(N)NC(=O)CCC(NC(=O)[C@@H]1CCCN1C(=O)[C@@H](CC1CCCCC1)NCC(=O)O)C(=O)c1nccs1` (stereo partly drawn) [Example 2, HOOC-CH2 -D-Cha-Pro-Glu(guanadine)-(2-thiazolyl)], the negative logarithm of the IC50 (pIC50) (commonly the IC50 on a negative log10 scale, so that one unit is a factor of ten) was 7.47.
Compound `CCS(=O)(=O)N[C@H](CC1CCCCC1)C(=O)N1CCC[C@H]1C(=O)NC(CCC(=O)NC(=N)N)C(=O)c1nccs1` (stereo partly drawn) [Example 4, EtSO2 -D-Cha-Pro-Glu(guanidine)-(2-thiazolyl)] showed a pIC50 of 5.59.
Turning to `CN[C@H](CC1CCCCC1)C(=O)N1CCC[C@H]1C(=O)NC(CCC(=O)NC(=N)N)C(=O)c1nccs1` (stereo partly drawn) [Example 6, N-Me-D-Cha-Pro-Glu(guanidine)-(2-thiazolyl)], the negative logarithm of the IC50 (pIC50) is 6.49.
